Patent US20250381277A1, “COMPOSITIONS AND METHODS FOR TREATMENT OF NEUROLOGICAL DISORDERS” (Dana-Farber Cancer Institute, Inc., priority 2022, published 2025)
“Also recorded” adds a separate entry of the source.

Assays:
Format in all cases: cell-based, mouse
[1] = molecular target: CD11c^+αVβ3^+ microglia; experiment: Ki-67 and TNF-α expression in microglia of 9-mo old WT mice incubated with rmOPN or αVβ3 inhibitor (flow cytometry); details: 9-mo old WT mice microglia, 24 h with or without 12.5 μg/ml rmOPN or 10 μM cilengitide
Method: (A) Microglia isolated from P5 and 9-mo old WT, OPN-KO and OPN-i-KI mice were incubated×1 h with […] pHrodo Green-labeled synaptosomes per 1×10^5 cells followed by flow cytometry analysis of CD11c^+ microglial engulfment of synaptosomes. CD11c^+ microglia from P5, but not 9-mo old WT mice, were highly phagocytic for engulfing synaptosomes in vitro. […] (C) CD11c^+ microglia expressed high levels of proliferation marker Ki-67 early in development (P5). OPN-s, but not OPN-i deficiency decreased Ki-67 expression in CD11c^+ microglia (n=3). *p<0.05 by one-way ANOVA with Bonferroni's multiple comparisons test. […] (E) Microglia isolated from 9-mo old WT mice were incubated×24 h with or without 12.5 μg/ml recombinant mouse OPN (rmOPN) or 10 μM αVβ3 inhibitor (cilengitide) followed by flow cytometry analysis of proliferation marker Ki-67. […] (G) Microglia isolated from 9-mo old WT mice were incubated×24 h with or without 12.5 μg/ml recombinant mouse OPN (rmOPN) or 10 μM αVβ3 inhibitor (cilengitide) followed by flow cytometry analysis of TNF-α expression. […] Data are shown as mean±s.e.m.
Microglial staining for flow cytometry analysis. Microglia were stained with Ghost dye Violet 510 (1:1000, Tonbo Biosciences) to exclude dead cells followed by Fc receptor blocking using CD16/CD32 antibody (1:100, BD Biosciences) to avoid non-specific staining. Appropriate microglial surface markers were used for staining, including anti-CD11b (1:100 Biolegend), anti-CD45 (1:100 Biolegend), anti-CD11c (1:50 Biolegend), anti-CD36 (1:100, Biolegend), anti-CD209a (1:100, Biolegend), anti-αV integrin (1:50, Biolegend), anti-β3 integrin (1:50, Biolegend), anti-CD86 (1:100, Biolegend), and anti-MHC II (1:100, Biolegend), followed by fixation and permeabilization for subsequent intracellular staining with anti-OPN (1:10, R&D Systems), anti-TNF-α (1:50, Biolegend) and intranuclear staining with anti-Ki-67 (1:100, Biolegend).

[2] = system: IL-1β; experiment: Microglial inflammasome activation: IL-1β production (ELISA of culture medium); details: LPS 100 ng/ml 3 h + Aβ1-42 fibrils 10 μM overnight; microglia from 9-mo 5XFAD and OPN-KO.5XFAD mice; rmOPN 12.5 pg/ml, Cilengitide 10 μM
Method: (§1) Intracellular Caspase-1 activity was measured by bioluminescent assay of microglia from 9-month-old 5XFAD mice. Detection of the specificity of Caspase-1 activity was confirmed by a selective Caspase-1 inhibitor (Ac-YVAD-CHO (SEQ ID NO: 13), 1 μM). Bar plots are representative results from three independent experiments. […] Activation of Caspase-1 and IL1β by provision of rmOPN was blocked following provision of αVβ3 inhibitor to microglia from 9-mo old 5XFAD and OPN-KO.5XFAD mice (n=3). ****p<0.0001, ***p<0.001, **p<0.01, *p<0.05, ns: not significant by one-way ANOVA with Bonferroni's multiple comparisons test. U.D. undetectable.
(§2) In these studies, microglia isolated from 9-mo old 5XFAD and OPN-KO.5XFAD mice were seeded into 96-well plates at 6×10^4 cells/well in conventional microglia culture medium (DMEM-F12 with 10% fetal bovine serum+1% penicillin/streptomycin+10 ng/ml recombinant mouse M-CSF). […] Microglial intracellular Caspase-1 activity was analyzed by the bioluminescent Caspase-Glo® 1 Inflammasome Assay Kit (Promega) per the manufacturer's instruction. […] Culture medium was collected for quantitative determination of microglial […] DuoSet ELISA kit (R&D Systems) according to the manufacturer's instructions.

[3] = system: CD11c^+ microglia of 9-mo old OPN-KO.5XFAD mice; experiment: In vitro microglia assay: impact of OPN-αVβ3 interaction on CD11c^+ microglial TNF-α production; details: 9-mo old OPN-KO.5XFAD microglia, Cilengitide 10 μM 1 h pre-incubation, then rmOPN 12.5 pg/ml, 24 h
Method: (a) Representative flow cytometry plots and quantification of TREM2 mean fluorescence intensity (MFI) in CD11c^+ OPN^+ and CD11c^+ OPN^− microglial subsets of 9-mo old 5XFAD mice. […] Statistical analysis was performed by two-tailed Student's t test. (b) Representative flow cytometry plots of TNF-α and TREM2 expression in CD11c^− OPN^− microglial subset of 9-mo old 5XFAD mice. CD11c^− OPN^− microglia expressed low level of TNF-α and negligible level of TREM2. The plots were representative results from 3 independent experiments. (c) Microglial expression of canonical OPN receptors in 5XFAD mice at different stages of disease. […] The histogram of CD44 and the contour plot of αVβ3 and αVβ5 were the representative results from 3 independent experiments. (d) The impact of OPN-αVβ3 interaction on CD11c^+ microglial production of TNF-α. […] (e) Representative flow cytometry plots and quantification of TREM2 MFI in CD11c^+ microglia of 9-mo old 5XFAD and OPN-KO.5XFAD mice (n=3). […] Two-tailed Student's t test was performed for statistical analysis.
To test the impact of OPN-αVβ3 interaction on CD11c^+ microglial pro-inflammatory response, microglia were enriched by anti-CD11b microbeads (purity >95%, Miltenyi) from 9-mo old OPN-KO.5XFAD mice and were seeded into 12-well plates at 3×10^5 cells/well in conventional microglia culture medium (DMEM-F12 with 10% fetal bovine serum+1% penicillin/streptomycin+10 ng/ml recombinant mouse M-CSF). Microglia were pre-incubated with a selective αVβ3 inhibitor, Cilengitide (10 μM) for 1 h followed by the addition of 12.5 pg/ml recombinant mouse OPN (rmOPN) and cultured for 24 h before analysis of CD11c^+ microglial expression of TNF-α by flow cytometry.

[4] = system: Caspase-1; experiment: Microglial inflammasome activation: intracellular Caspase-1 activity (bioluminescent Caspase-Glo 1 assay); details: LPS 100 ng/ml 3 h + Aβ1-42 fibrils 10 μM overnight; microglia from 9-mo 5XFAD and OPN-KO.5XFAD mice; rmOPN 12.5 pg/ml, Cilengitide 10 μM
Method: as §1, §2

Compound | Ki-67 expression in CD11c^+αVβ3^+ microglia [1] | TNF-α expression in CD11c^+αVβ3^+ microglia [1] | microglial IL-1β production [2] | TNF-α production by CD11c^+ microglia [3] | TNF-α production by CD11c^+ microglia ([3]; listed as αVβ3 inhibitor) | microglial intracellular Caspase-1 activity [4]
CC(C)[C@H]1C(=O)N[C@@H](CCCN=C(N)N)C(=O)NCC(=O)N[C@@H](CC(=O)O)C(=O)N[C@H](Cc2ccccc2)C(=O)N1C [Cilengitide] | markedly reduced; also recorded: fully abrogated | fully abolished | blocked | abolished | fully abrogated | blocked
rmOPN: recombinant mouse OPN (osteopontin) | enhanced Ki-67 expression | Upregulation of TNF-α expression | substantially increased; also recorded: Activation | induced TNF-α expression; also recorded: Upregulated TNF-α production | – | substantially increased; also recorded: Activation
